For experiment [1], the system named is Ralstonia solanacearum. The experiment is classed as in vivo. The conditions noted are these: for Bacterial wilt severity: foliar application, tomato plants, scale 0=healthy to 4=dead plant.
Experiment [2] relates to Ralstonia. As to conditions: tomato plants transferred into hydroponic solutions inoculated with Ralstonia and previously treated with 3-IBA; more than 60% wilt in its absence; cited from earlier work.
Experiment [3] concerns Ralstonia. As to conditions: solution added to Ralstonia culture liquid in physiological brine; cited from earlier work.

Read-outs that look alike come from different tables or passages of the source. Marks after values point to notes of the source that are not given here.

Here are results for two molecules from US6399646B1 (priority 2001, dated 2002).

On to `CC(CC(=O)O)c1c[nH]c2ccccc12` (centres unmarked) [3-IBA, 3-(3-indolyl) butanoic acid], for which the Bacterial wilt severity in experiment [1] (higher concentration (2.0 lbs active ingredient per 100 gallons), rated 9/26/2000, six replications) was 2.3; in experiment [1] (higher concentration (2.0 lbs active ingredient per 100 gallons), rated 9/27/2000) it was 3.0; in experiment [1] (higher concentration (2.0 lbs active ingredient per 100 gallons), rated 9/30/2000), 2.8; in experiment [1] (higher concentration (2.0 lbs active ingredient per 100 gallons), rated 10/04/2000) it was 3.3; in experiment [1] (higher concentration (2.0 lbs active ingredient per 100 gallons), rated 10/26/2000), 1.5***; in experiment [1] (low concentration (0.25 lbs active ingredient per 100 gallons), rated 9/26/2000, six replications), 2.5. For the same molecule, the Bacterial wilt severity in experiment [1] (low concentration (0.25 lbs active ingredient per 100 gallons), rated 9/27/2000) is listed as 3.0; in experiment [1] (low concentration (0.25 lbs active ingredient per 100 gallons), rated 9/30/2000), 4.0; in experiment [1] (low concentration (0.25 lbs active ingredient per 100 gallons), rated 10/04/2000), 3.8; in experiment [1] (low concentration (0.25 lbs active ingredient per 100 gallons), rated 10/26/2000), 4.0**. Also, the “Plants revived and recovering at the end of the trial” value in experiment [1] (higher concentration, foliar treatment prior to inoculation, of 6 tomato plants) is recorded as 3 plants. For the same molecule, the “State of the 6 treated plants by the end of the trial” value in experiment [1] (low concentration, foliar treatment prior to inoculation, 6 tomato plants) is reported as “all dead”. The Plants slightly wilted entry in experiment [2] is “less than 10%”.

On to `C[C@@H](CC(=O)O)c1c[nH]c2ccccc12` [(S)-3-(3-indolyl) butanoic acid], for which, in experiment [3], the “Ralstonia growth (turbidity of culture liquid)” value is recorded as “suppression of Ralstonia growth”.
